Consider seven compounds from PubChem BioAssay (NCI).

Structures are written as SMILES. Where “and” joins values, the source holds several entries; their conditions need not be identical. Identical values can stand only once.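 Method: 48-hour compound exposure of cells in 96-well plates, five concentrations, linear interpolation of endpoints. Abbreviation: GI50, concentration required for 50% inhibition of growth. TGI denotes the concentration required for complete inhibition of growth.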

Among the test systems are 786-0 renal; DU-145 prostate; HCC-2998 colon; HOP-62 NSCLC; HOP-92 NSCLC; MCF7 breast; MOLT-4 leukemia; NCI-H522 lung; TK-10 renal; UACC-62 melanoma.
Common to all, as to test: DTP human tumour cell line panel, 48 h

Regarding `C=C(CN1CCc2ccccc2C1)c1ccc(/C=C/C(=O)Nc2ccccc2N)cc1`, the GI50 is 3.81 µM with 786-0 renal; 5.98 µM in the test on DU-145 prostate; 2.04 µM with HCC-2998 colon; 5.17 µM in the test with HOP-62 NSCLC; 8 µM with HOP-92 NSCLC; 2.37 µM in the test with MCF7 breast. Also, the GI50 in the test on MOLT-4 leukemia is 3.18 µM; in the test on NCI-H522 lung it was 0.783 µM; with TK-10 renal, 3.88 µM; in the test with UACC-62 melanoma, 4.99 µM. In addition, the TGI with 786-0 renal is 24.4 µM; in the test with DU-145 prostate, over 100 µM; in the test on HCC-2998 colon, 34.5 µM; with HOP-62 NSCLC, over 100 µM; with HOP-92 NSCLC, 52.8 µM; in the test on MCF7 breast it was over 100 µM. Besides, the TGI with MOLT-4 leukemia is over 100 µM; in the test with NCI-H522 lung, 14.7 µM; in the test with TK-10 renal, 26.9 µM; in the test with UACC-62 melanoma it was 22.8 µM.

As to `COc1ccc(/C=C\c2cc(OC)c(OC)c(OC)c2)cc1NC(=O)[C@@H](N)CO`, the GI50 is 0.0188 µM in the test on 786-0 renal; 0.0288 µM in the test on DU-145 prostate; 0.0199 µM in the test on HCC-2998 colon; 0.0267 µM in the test with HOP-62 NSCLC; 0.0103 µM with HOP-92 NSCLC; 0.0207 µM in the test with MCF7 breast. For the same compound, the results for the GI50 with MOLT-4 leukemia, in the test on NCI-H522 lung and in the test with TK-10 renal were 0.0432 µM, under 0.01 µM and 19.3 µM, respectively. Besides, the TGI is over 40.3 µM in the test on 786-0 renal; over 100 µM in the test on DU-145 prostate; over 100 µM in the test with HCC-2998 colon; over 100 µM in the test on HOP-62 NSCLC; 64.5 µM with HOP-92 NSCLC; over 100 µM with MCF7 breast. Also, the TGI is over 100 µM in the test with MOLT-4 leukemia, 0.0457 µM in the test on NCI-H522 lung, over 100 µM in the test with TK-10 renal and over 100 µM with UACC-62 melanoma.

Take `O=C1CC2(CCCc3sccc32)C(=O)N1` (stereo not drawn): the TGI with 786-0 renal, in the test on DU-145 prostate, in the test with HCC-2998 colon, in the test with HOP-62 NSCLC, with HOP-92 NSCLC and in the test on MCF7 breast was over 100 µM in each case. Further, the TGI in the test on MOLT-4 leukemia, in the test on NCI-H522 lung, in the test on TK-10 renal and with UACC-62 melanoma was over 100 µM in each case.

Take `Cc1cc(S(=O)(=O)Nc2nnc(-c3ccco3)c(-c3ccco3)n2)c(SCc2ccccc2)cc1Cl`: the GI50 was 38.8 µM in the test with 786-0 renal; 17 µM in the test with DU-145 prostate; 20.4 µM with HCC-2998 colon; 25.5 µM in the test with HOP-62 NSCLC; 21.5 µM in the test with HOP-92 NSCLC; 26.7 µM in the test with MCF7 breast. Further, the GI50 with MOLT-4 leukemia is 17.9 µM; with NCI-H522 lung it was 24.8 µM; in the test on TK-10 renal it was 26.7 µM; in the test on UACC-62 melanoma it was 19.4 µM. The TGI in the test with 786-0 renal was over 100 µM; with DU-145 prostate it was 32.5 µM; in the test with HCC-2998 colon, 36.8 µM; in the test with HOP-62 NSCLC, 53.3 µM; in the test with HOP-92 NSCLC it was 45.4 µM; in the test on MCF7 breast it was 61.9 µM. Further, the TGI in the test on MOLT-4 leukemia worked out at 53 µM; in the test with NCI-H522 lung, 65.7 µM; in the test with TK-10 renal it was 74.8 µM; with UACC-62 melanoma, 37.2 µM.

With `COc1ccc(-n2c(-c3ccc(NC(=O)CCCl)cc3)nnc2-c2cc(OC)c(OC)c(OC)c2)cc1`, the GI50 is 12.5 µM with 786-0 renal; 2.77 µM in the test on DU-145 prostate; 3.05 µM in the test on HCC-2998 colon; 3.49 µM in the test with HOP-62 NSCLC; 4.1 µM with HOP-92 NSCLC; 3.15 µM in the test on MCF7 breast. Moreover, the GI50 in the test on MOLT-4 leukemia was 3.4 µM; in the test with NCI-H522 lung, 4.14 µM; in the test with TK-10 renal it was 4.97 µM; in the test on UACC-62 melanoma, 2.54 µM. Also, the TGI is over 14.3 µM in the test with 786-0 renal; 8.67 µM in the test on DU-145 prostate; 7.07 µM with HCC-2998 colon; 13.4 µM with HOP-62 NSCLC; over 14.3 µM with HOP-92 NSCLC; over 14.3 µM with MCF7 breast. Further, the TGI in the test on MOLT-4 leukemia is 10.6 µM; with NCI-H522 lung, over 14.3 µM; with TK-10 renal, 11.9 µM; in the test with UACC-62 melanoma, 6.92 µM.

On to `CC1/C=C/C=C/CC/C=C/C=C/C=C/C=C/C(OC2OC(C)C(O)C(N)C2O)CC2OC(CC(O)C(O)CCC(O)CC(O)CC(O)CC(=O)OC(C)C(C)C1O)CC(O)C2C(=O)O` (stereo not drawn), for which the GI50 is 25.8 µg/mL in the test with 786-0 renal; 32.3 µg/mL with DU-145 prostate; 19.1 µg/mL in the test on HCC-2998 colon; 25.4 µg/mL with HOP-62 NSCLC; 42.5 µg/mL in the test with HOP-92 NSCLC; 128 µg/mL in the test with MCF7 breast. For the same compound, the results for the GI50 in the test with NCI-H522 lung, in the test with TK-10 renal and in the test on UACC-62 melanoma were 29.8 µg/mL, 28.3 µg/mL and 28.8 µg/mL, respectively. The TGI with 786-0 renal is 31.3 µM and 50.1 µg/mL; in the test on DU-145 prostate, 32.4 µM and 73.5 µg/mL; with HCC-2998 colon, 30.8 µM and 44.6 µg/mL; in the test with HOP-62 NSCLC it was 35.8 µM and 55.3 µg/mL; in the test on HOP-92 NSCLC, > 100 µM and 150 µg/mL; in the test on MCF7 breast, 36.4 µM and 150 µg/mL. Moreover, the TGI is 38.2 µM in the test with MOLT-4 leukemia; 34.3 µM and 53.7 µg/mL with NCI-H522 lung; 32.5 µM and 53.6 µg/mL in the test on TK-10 renal; 38 µM and 55.8 µg/mL in the test with UACC-62 melanoma.

As to `O=C(CCl)Nc1ccccc1SCc1cc(Cl)cc2c1OCOC2`, the GI50 is 12.6 µM in the test with 786-0 renal; 15.7 µM with DU-145 prostate; 16.6 µM with HCC-2998 colon; 19.8 µM in the test on HOP-62 NSCLC; 3.17 µM with HOP-92 NSCLC; 3.41 µM in the test on MCF7 breast. In addition, the GI50 in the test on MOLT-4 leukemia was 2.6 µM; with NCI-H522 lung, 1.85 µM; in the test with TK-10 renal, 16.9 µM; in the test with UACC-62 melanoma, 5.44 µM. For the same compound, the total growth inhibition concentration (TGI) in the test on 786-0 renal amounted to 26.4 µM; with DU-145 prostate, 29.4 µM; with HCC-2998 colon, 31.5 µM; in the test with HOP-62 NSCLC it was 41.5 µM; with HOP-92 NSCLC, 17.9 µM; in the test on MCF7 breast, 15.4 µM. In addition, the total growth inhibition concentration (TGI) in the test on MOLT-4 leukemia is 7.51 µM; with NCI-H522 lung, 4 µM; in the test on TK-10 renal, 31.4 µM; in the test with UACC-62 melanoma it was 19.9 µM.
